Earlier results on 34 molecules are cited in PubChem BioAssay AID493017 (Abbott Labs, 2003).

The target in this data set is Cyclin-dependent kinase 2 (Homo sapiens) (UniProt P24941). Kind of data set: PubChem AID 493017. The following applies: WOMBAT literature affinities, multiple human targets; CDK2; gene CDK2; NCBI gene 1017.

Turning to `O=C(CSc1nnc(SCC(=O)Nc2nc(-c3ccccc3)cs2)s1)Nc1nc(-c2ccccc2)cs1`, the IC50 is 1310 nM. Regarding `Cc1ccc(Nc2nc(-c3cc(C(C)(C)C)c(O)c(C(C)(C)C)c3)c(C)s2)cc1`, the IC50 was 1220 nM. Take `CCOC(=O)Nc1nc2ccc(C=Cc3ccc(C)cc3)cc2[nH]1`: the IC50 was 7350 nM.

Consider `O=C(Cc1nnc(NC(=O)c2ccc([N+](=O)[O-])c(Cl)c2)s1)NNC(=O)c1ccc([N+](=O)[O-])c(Cl)c1`, for which the IC50 is 1210 nM. For `Nc1nc(NS(=O)(=O)c2ccc(C(F)(F)F)cc2)cc(-c2ccc(F)cc2)n1`, the IC50 was 1860 nM. As to `O=C(Nc1cc([N+](=O)[O-])ccc1O)c1ccc(Oc2ccc(C(=O)Nc3cc([N+](=O)[O-])ccc3O)cc2)cc1`, the IC50 is 1150 nM. For the molecule `Nc1ccc(C(=O)Nc2ccc(-c3nc4ccc(NC(=O)c5ccc(N)cc5)cc4[nH]3)cc2)cc1`, the IC50 was 4510 nM. Turning to `OCCNc1cc(-c2[nH]c3nccnc3c2-c2ccc(F)cc2)ccn1`, the IC50 was 3500 nM. For `Oc1cc(O)cc(C=Cc2ccc(O)c(O)c2)c1`, the IC50 was 2580 nM. As to `COC(=O)c1c(NC(=O)Nc2ccc(Cl)cc2)sc2c1CCN(c1ncc(C(F)(F)F)cc1Cl)C2`, the IC50 is 8890 nM. Turning to `N#Cc1cnc(NC2CCCCC2)nc1N`, the IC50 is 1100 nM. Consider `Cc1ccc(C(=O)Nc2ccc3c(c2)Cc2cc(NC(=O)c4ccc(C)cc4)ccc2-3)cc1`, for which the IC50 is 2960 nM.

Take `c1cnc2nc(-c3ccncc3)[nH]c2c1`: the IC50 was 3000 nM.

Turning to `Cc1cc(Cc2ccc(NC(N)=S)c(C)c2)ccc1NC(N)=S`, the half-inhibitory concentration (IC50) is 2650 nM. Take `O=C(Nc1ccc([N+](=O)[O-])cc1)C(Cc1ccccc1)N1C(=O)c2cccc3cccc(c23)C1=O` (centres undefined): the IC50 was 4190 nM. Consider `O=C1c2ccc([N+](=O)[O-])c3c([N+](=O)[O-])ccc(c23)C(=O)N1c1ccc(S(=O)(=O)Nc2cc(Cl)ccc2O)cc1`, for which the IC50 is 1410 nM. For `O=C(Nc1cccc2cccc(NC(=O)c3ccc([N+](=O)[O-])cc3)c12)c1ccc([N+](=O)[O-])cc1`, the IC50 is 2940 nM.

Turning to `O=C(Nc1ccc(Cl)cc1)c1cc(Br)ccc1NS(=O)(=O)c1ccc(Br)c2nsnc12`, the IC50 is 3660 nM.

As for `N#CC(=Cc1cc(O)c(O)c(O)c1)C(N)=C(C#N)C#N`, the IC50 is 1480 nM. For the molecule `c1ccc2c(c1)nc(SC1=NCCCN1)c1c3ccccc3[nH]c21`, the IC50 was 2160 nM. As to `COC(=O)c1cc(=O)n2c(nc3cc(C(F)(F)F)ccc32)s1`, the IC50 is 7770 nM. `CCCCCOC(=O)c1ccc(N2C(=O)c3ccc(Oc4ccc(NC(C)=O)cc4)cc3C2=O)cc1`: the IC50 was 3300 nM.

Turning to `O=C(Nc1ccccc1)Nc1sccc1OCc1ccc(Cl)cc1Cl`, the IC50 was 3370 nM. As for `CC(=O)c1c(O)c(C)c(O)c(Cc2c(O)c3c(c(C(=O)C=Cc4ccccc4)c2O)OC(C)(C)C=C3)c1O`, the half-maximal inhibitory concentration (IC50) was 4550 nM. Take `CN1CCc2nc(SCc3ccc(C(C)(C)C)cc3)c(C#N)c(-c3cccs3)c2C1`: the IC50 is 1120 nM. In the case of `COC(=O)NC1=Nc2cccc3cccc(c23)N1`, the 50% inhibitory concentration (IC50) was 4390 nM. Consider `C#Cc1cccc(N2C(=O)c3ccc(Oc4cccc(N5C(=O)c6ccc([N+](=O)[O-])cc6C5=O)c4)cc3C2=O)c1`, for which the IC50 was 2830 nM. In the case of `Cc1nc(N=C(N)NC(=O)Nc2ccc(Cl)cc2)sc1Br`, the IC50 is 2900 nM. `S=c1[nH]c(=S)c2c3c(sc2[nH]1)CN(Cc1ccccc1)CC3`: the half-maximal inhibitory concentration (IC50) is 1130 nM.

`O=[N+]([O-])c1ccc(S(=O)(=O)c2ccc(Oc3ccc(S(=O)(=O)c4ccc([N+](=O)[O-])cc4)cc3)cc2)cc1`: the IC50 is 1520 nM. In the case of `O=C(Nc1ccc(NC(=O)c2ccccc2[N+](=O)[O-])cc1)c1ccc(NC(=O)c2ccccc2[N+](=O)[O-])cc1`, the IC50 is 1370 nM. For `Cc1cc(Nc2ccc3[nH]ncc3c2)nc(NCC2CC2)n1`, the IC50 was 4100 nM. On to `Cc1cccc(NC(=O)Nc2ccc(Cc3ccc(NC(=O)Nc4cccc(C)c4)cc3)cc2)c1`, for which the IC50 was 4820 nM. As to `CCC(C)c1cc(N)nc2nc3cc(C)c(C)cc3n12` (centres undefined), the IC50 was 6620 nM.

The term IC50 denotes the concentration at which inhibition is half-maximal.
